Reference: patent US8420606B2, “Method of utilizing physiological activity of rare saccharide and composition containing rare saccharide” (priority 2002, dated 2013)
“Also recorded” adds a separate entry of the source.

Experiments:
Daudi = experiment: blood-system cancer cell strain proliferation, Coulter Counter, Daudi; type: cell-based; settings: for Daudi cell number relative to glucose: seventh day, glucose = 100%; for Daudi-cell proliferation inhibitory effect: 0.05-50 mM, 7 days, D-glucose control
Protocol: (2) Method: Total 6 kinds of cell strains, i.e., Myeloid (HL-60, THP-1, KG-1), T-cell (MT-2), and B-Cell (Daudi, KS-1), and 3 kinds of rare saccharides (i.e., D-psicose, D-altrose, and D-allose), were employed. The culture medium and the cells were prepared to be 1 mL in total and 1×10^5 in number, respectively. Then, the cell number at each of fourth day and seventh day was counted by using a Coulter Counter. Each rare saccharide was added at concentrations of 0.05, 0.5, 5 and 50 mM, while D-glucose was used as a control.
Culture Medium: FBS 10% added RPMI1460
Cultivation Conditions: 37° C., 5% CO2
Cultivation Vessel: FALCON, MULTIWELL, 12 wells
Number of Cultivation Days: 7 days
Saccharides Concentration: 0.05, 0.5, 5, 50 mM

[1] = system: island skin flap of Wistar rat; experiment: island skin-flap ischemia-reperfusion, survival area; type: in vivo
Source text: (1) Purpose: In the past basic researches, the inventors have tried to find out the mechanisms of skin-flap necrosis after ischemia and reperfusion of island skin flaps and necrosis of distal portions of random pattern skin flaps. As a result, the inventors have clarified that active oxygen is related to the necrosis of island skin flaps after ischemia and reperfusion and the necrosis of distal portions of random pattern skin flaps. […] In this Example 7, a first purpose is to obtain basic data regarding active-oxygen production inhibitory effects of rare saccharides, and a second purpose is to ensure clinical applications with the view of effectively preventing the necrosis of island skin flaps and random pattern skin flaps. A third purpose is to realize an application as a preservative liquid for long-period preservation of free skin flaps and amputated limbs. (2) Experiment method: 1) A Wistar rat (♂, 7 to 8 weeks, and 300 g or less) was put under anesthesia through abdominal administration of pentobarbital (Nembutal). 2) The abdomen was wholly shaved by a hair clipper. 3) An island skin flap of 3×5 cm was formed in the left abdomen with the left femoral artery and vein serving as blood vessel pedicels. 4) The elevated island skin flap was stitched to the original position by using a 4-0 nylon string. 5) Drugs (0.6 mL per drug) were each administrated in one shot through the right femoral artery and vein by instantaneous injection. The administered drugs were D-allose, glucose (0.2 mg/g), and physiological saline in various concentrations.
6) After waiting for 15 minutes from the administration of each drug, the blood vessel pedicels of both the left femoral artery and vein were clamped. Two vascular clips (60 g for the vein) were used for the clamping.
7) Complete shutoff of blood circulation was confirmed by using a laser Doppler rheometer.
8) After 8 hours, the rats were unclamped. Resumption of blood circulation was also confirmed by using a laser Doppler rheometer.
9) After 1 week, the life or death of the skin flap was determined.
10) An image of the skin flap was taken by a digital camera and input to a computer to calculate a survival area (%) by using area calculation software.
(3) Experiment groups: The following 6 groups were prepared with n=15 in each group.
1) D-allose: 150 mg (0.5 mg/g)
2) D-allose: 60 mg (0.2 mg/g)
3) D-allose: 30 mg (0.1 mg/g)
4) D-allose: 15 mg (0.05 mg/g)
5) D-glucose: 60 mg (0.2 mg/g)
6) physiological saline (control)
(4) Results (FIGS. 17 to 20): FIG. 18 showing all data of the survival areas (%), and FIG. 19 showing results of variance analysis (one-dimensional arrangement). […] In the multiple comparison assay, a significant difference was determined on condition of p<0.05.

microglia migration = experiment: brain ischemia model, number of appearing microglias; type: in vivo, gerbil; settings: 200 mg/kg femoral vein 5 minutes before and immediately after 5 minutes ischemia; after 1 week
Protocol: In this Example 11 described below, an influence of ketohexose belonging to the rare saccharides upon the number of microglias appearing with ischemia is examined. […] D-psicose was used as the ketohexose belonging to the rare saccharides. As a brain ischemia model, the bilateral common carotid artery of a male gerbil with weight of about 70 g was shut off for 5 minutes. In this model, neurons in the hippocampus CA1 area of a brain are peculiarly brought to ischemic cell necrosis.
Comparative studies were made on three exemplified groups, i.e., one group not subjected to ischemia (control: Sham), another group subject to ischemia+treatment with physiological saline, and still another group subject to ischemia+treatment with D-psicose.
The D-psicose treatment was performed through the steps of dissolving D-psicose in physiological saline to prepare a D-psicose solution with concentration of 200 mg/mL, and administrating the D-psicose solution to the ischemia model through the femoral vein in units of 200 mg/kg at 5 minuets before ischemia and immediately after the ischemia. The physiological saline treatment was performed by administering only physiological saline instead of the D-psicose solution. After 1 week from the ischemia, perfusion fixation was made and a frozen brain sample of 20 μm was prepared, followed by hematoxyline eosin dyeing.

[2] = system: Human vascular endothelial cells (HUVECs); experiment: MCP-1 secretion from vascular endothelial cells, ELISA; type: cell-based; settings: D-psicose 0, 5.6, 11.2 mM, 24 hours
Protocol: Human vascular endothelial cells (HUVECs) were cultured under the culture medium condition of (DMEM +10% FBS) in accordance with the ordinary method. HUVECs at concentration of about 70% were pipitted into a 96-well culture dish, and the following experiments were performed.
D-psicose was added to the HUVECs culture medium at concentrations of 0 mM, 5.6 mM and 11.2 mM. After cultivation for 24 hours, MCP-1 in the culture medium was measured by using an ELISA (Quantikine, R&D) kit.
HUVECs were pretreated for 1 hour with cytokines acting upon HUVECs and stimulating secretion of MCP-1, i.e., IL-1β (maximum secretion stimulus concentration of 1 ng/mL), and TNF-α (maximum secretion stimulus concentration of 10 ng/mL). Then, D-psicose was added at concentrations of 0 mM, 5.6 mM and 11.2 mM, and after 24-hour cultivation, the MCP-1 concentration in the culture medium was measured by using the ELISA kit. […] The secretion of MCP-1 in the vascular endothelial cells is stimulated by cytokines (IL-1β, TNF-α) at maximum secretion stimulus concentration of 1 ng/mL for IL-1β and 10 ng/mL for TNF-α.

SMILES	Daudi cell number relative to glucose (Daudi; 0.05 mM)	Daudi cell number relative to glucose (Daudi; 0.5 mM)	Daudi cell number relative to glucose (Daudi; 5 mM)	Daudi-cell proliferation inhibitory effect (Daudi)	Daudi-cell proliferation inhibitory effect (Daudi; listed as allose)	Daudi cell number relative to glucose (Daudi; 50 mM)	skin flap survival area versus physiological saline group and glucose group ([1]; D-allose 15 mg (0.05 mg/g))	skin flap survival area versus physiological saline group ([1]; D-allose 30 mg (0.1 mg/g) or more (groups 150, 60, 30 mg), 8 hours clamping, 1 week, p<0.05)	skin flap survival area versus glucose group ([1]; D-allose 150 mg (0.5 mg/g) and 60 mg (0.2 mg/g))	dose required to develop the effect of extending the skin flap survival area ([1]; per rat, 30 mg = 0.1 mg/g)	skin flap survival area versus physiological saline group ([1]; D-glucose 60 mg (0.2 mg/g))	number of appearing microglias (microglia migration)	basic secretion of MCP-1 [2]	cytokine-stimulated secretion of MCP-1 ([2]; IL-1β 1 ng/mL pretreatment 1 hour)
O=C[C@H](O)[C@H](O)[C@H](O)[C@H](O)CO [D-allose]	85.9%	80.6%	62.2%	having the inhibitory effect	showed an inhibitory effect	3.9%	a statistical significant difference was not confirmed	a statistical significant difference was confirmed	a statistical significant difference was confirmed	≥ 30 mg	–	–	–	–
O=C[C@H](O)[C@@H](O)[C@H](O)[C@H](O)CO [D-glucose, reference compound]	–	–	–	–	–	–	–	–	–	–	did not show a statistical significant difference	–	–	–
O=C(CO)[C@H](O)[C@H](O)[C@H](O)CO [D-psicose]	–	–	–	showed no effect	–	–	–	–	–	–	–	reduced	able to inhibit the secretion of MCP-1 depending on the concentration; also recorded: has a MCP-1 secretion inhibitory effect	inhibited by added D-psicose depending on the concentration; also recorded: inhibits secretion of MCP-1
